One assay concerns the target Cbl-b (Homo sapiens (Human), UniProt Q13191). Put plainly: Cbl-b LCK Ub TR-FRET assay (Cbl-b Lck HTRF). It is filed as biochemical. The note with it: for IC50: Cbl-b LCK Ub TR-FRET; for fold-selectivity (Cbl-b over C-cbl): ratio C-cbl Lck HTRF IC50 / Cbl-b Lck HTRF IC50. In outline:
(§1)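 Detection reagents added, brief spin, 20 min RT. IC50 fit normalized to no-LCK (low) and DMSO (high) controls.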

A further assay deals with c-Cbl (Homo sapiens (Human), UniProt P22681). The experiment in a line: C-Cbl LCK Ub TR-FRET assay (C-cbl Lck HTRF). It is filed as biochemical. In outline:
as §1

Assay [1] has as its target Human Cbl-b (residues 40-426) (Homo sapiens (Human), UniProt Q13191). The experiment in a line: Cbl-b SPR assay. It is filed as binding. Particulars: for Fold of selectivity: C-cbl SPR Kd vs Cbl-b SPR Kd; for Kd: SPR, 20° C. The procedure, abridged: (§2)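 Captured protein (1300-1500 RU for both isoforms) was probed in multi-cycle kinetics with 6 concentrations in 2-fold dilution, 60 s contact, 40 μl/min, dissociation 120-1200 s, double-referenced. Kinetic and affinity parameters came from a 1:1 binding fit. For slow off-rates, kd was set independently by a chaser-based method.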

The target in another assay is c-Cbl (residues 47-435) (Homo sapiens (Human), UniProt P22681). The experiment in a line: c-Cbl SPR assay. It is filed as binding. Particulars: 20° C. The procedure, abridged: as §2

Structures are written as SMILES.

Sequence of Cbl-b (Q13191 40-426): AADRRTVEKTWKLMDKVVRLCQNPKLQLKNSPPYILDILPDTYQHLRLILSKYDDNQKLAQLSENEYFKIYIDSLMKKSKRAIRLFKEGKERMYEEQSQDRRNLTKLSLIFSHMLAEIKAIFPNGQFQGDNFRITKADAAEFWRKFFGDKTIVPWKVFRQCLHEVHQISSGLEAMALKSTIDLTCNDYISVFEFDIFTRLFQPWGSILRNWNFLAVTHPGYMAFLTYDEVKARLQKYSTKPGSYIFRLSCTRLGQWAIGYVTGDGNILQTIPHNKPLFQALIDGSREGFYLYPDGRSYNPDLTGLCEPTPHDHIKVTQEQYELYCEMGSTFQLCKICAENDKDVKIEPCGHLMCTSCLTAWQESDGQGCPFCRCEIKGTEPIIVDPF
Sequence of Human Cbl-b (residues 40-426) (Q13191 40-426): as above
Sequence of c-Cbl (residues 47-435) (P22681 47-435): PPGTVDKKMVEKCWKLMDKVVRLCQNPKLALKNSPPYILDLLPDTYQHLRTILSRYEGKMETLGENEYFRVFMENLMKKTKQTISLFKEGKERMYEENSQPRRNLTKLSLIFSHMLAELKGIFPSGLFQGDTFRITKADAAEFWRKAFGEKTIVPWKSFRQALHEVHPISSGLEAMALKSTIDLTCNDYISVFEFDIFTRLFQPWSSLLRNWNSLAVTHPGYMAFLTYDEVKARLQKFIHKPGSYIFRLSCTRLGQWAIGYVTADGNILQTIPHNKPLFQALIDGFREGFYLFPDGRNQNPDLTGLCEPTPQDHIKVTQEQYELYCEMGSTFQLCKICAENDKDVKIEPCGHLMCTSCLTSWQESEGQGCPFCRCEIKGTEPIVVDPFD
Sequence of c-Cbl (P22681 47-435): as above

For `CO[C@H]1C[C@](c2cc(NC3CCCC3)nc(N3Cc4c(cc(CNC5(C)CCC5)cc4C(F)(F)F)C3=O)c2)(c2nncn2C)C1` [Compound 70, 2-(6-(cyclopentylamino)-4-((1R,3R)-3-methoxy-1-(4-methyl-4H-1,2,4-triazol-3-yl)cyclobutyl)pyridin-2-yl)-6-(((1-methylcyclobutyl)amino)methyl)-4-(trifluoromethyl)isoindolin-1-one], the IC50 turned out to be 0.017 µM on Cbl-b and 0.158 µM against c-Cbl. Also, on Cbl-b, the “fold-selectivity (Cbl-b over C-cbl)” value is recorded as “(9.3x)”. For the same molecule, the Fold of selectivity in assay [1] is 20×. In addition, the results for the Kd (in assay [1]; on c-Cbl (residues 47-435)) were 0.011 µM and 0.22 µM, respectively.
As to `CC(C)[C@H]1CN(C)CCN1Cc1cc2c(c(C(F)(F)F)c1)CN(c1cc([C@]3(c4nncn4C)C[C@@H](C)C3)cc(OC3CCCC3)n1)C2=O` [Compound 72, 2-(6-(cyclopentyloxy)-4-((1S,3R)-3-methyl-1-(4-methyl-4H-1,2,4-triazol-3-y)cyclobutyl)pyridin-2-yl)-6-(((S)-2-isopropyl-4-methylpiperazin-1-yl)methyl)-4-(trifluoromethyl)isoindolin-1-one], at Cbl-b, the IC50 is 2.4 µM and the “fold-selectivity (Cbl-b over C-cbl)” value was “(2.4x)”. The molecule also displayed an IC50 against c-Cbl of 5.3 µM. Besides, in assay [1], the Fold of selectivity is 4.5× and the Kd was 0.0004 µM. Besides, the Kd on c-Cbl (residues 47-435) was found to be 0.0018 µM.
As for `CC(C)[C@H]1CN(C)CCN1Cc1cc2c(c(C(F)(F)F)c1)CN(c1cc([C@]3(c4nncn4C)C[C@@H](C)C3)cc(NC3CCCC3)n1)C2=O` [Compound 74, 2-(6-(cyclopentylamino)-4-((1S,3R)-3-methyl-1-(4-methyl-4H-1,2,4-triazol-3-yl)cyclobutyl)pyridin-2-yl)-6-(((S)-2-isopropyl-4-methylpiperazin-1-yl)methyl)-4-(trifluoromethyl)isoindolin-1-one], on Cbl-b, it took 0.015 µM to reach half-maximal inhibition (IC50) and the “fold-selectivity (Cbl-b over C-cbl)” value was “(1.5x)”. This molecule also registered an IC50 at c-Cbl of 0.023 µM. In addition, in assay [1], the Fold of selectivity turned out to be 8.7× and binding was characterised by a dissociation constant (Kd) of 0.0083 µM. At c-Cbl (residues 47-435), this molecule came in with a Kd of 0.072 µM.
For the molecule `Cn1cnnc1[C@]1(c2cccc(N3Cc4c(cc(CNC5(C)CCC5)cc4C(F)(F)F)C3=O)c2)C[C@H](CC#N)C1` [Compound 88, 2-((1s,3s)-3-(4-methyl-4H-1,2,4-triazol-3-yl)-3-(3-(6-(((1-methylcyclobutyl)amino)methyl)-1-oxo-4-(trifluoromethyl)isoindolin-2-yl)phenyl)-cyclobutyl)acetonitrile], on Cbl-b, the IC50 is 0.012 µM and the “fold-selectivity (Cbl-b over C-cbl)” value is recorded as 1.0x. The molecule further displayed an IC50 on c-Cbl of 0.012 µM. Besides, in assay [1], the Fold of selectivity was found to be 4.1× and the affinity, expressed as Kd, was 0.021 µM. This molecule also came in with a Kd at c-Cbl (residues 47-435) of 0.087 µM.
For the molecule `Cn1cnnc1[C@]1(c2cccc(N3Cc4c(cc(CNC5(C)CCC5)cc4C(F)(F)F)C3=O)c2)C[C@@H](CC#N)C1` [Compound 89, 2-((1r,3r)-3-(4-methyl-4H-1,2,4-triazol-3-yl)-3-(3-(6-(((1-methylcyclobutyl)amino)methyl)-1-oxo-4-(trifluoromethyl)isoindolin-2-yl)phenyl)-cyclobutyl)acetonitrile], at Cbl-b, 0.041 µM corresponded to half-maximal inhibition (IC50) and the “fold-selectivity (Cbl-b over C-cbl)” value is recorded as 2.4x. For the same molecule, half-maximal inhibition on c-Cbl (IC50) was put at 0.098 µM. In assay [1], this molecule registered a Fold of selectivity of 6.6× and a Kd of 0.0006 µM. Further, the Kd at c-Cbl (residues 47-435) came out at 0.004 µM.
Turning to `CCNc1cc(N2Cc3c(cc(CNC4(C)CCC4)cc3C(F)(F)F)C2=O)cc([C@]2(c3nncn3C)C[C@H](C)C2)c1` [Compound 90, 2-(3-(ethylamino)-5-((1r,3r)-3-methyl-1-(4-methyl-4H-1,2,4-triazol-3-yl)cyclobutyl)phenyl)-6-(((1-methylcyclobutyl)amino)methyl)-4-(trifluoromethyl)isoindolin-1-one], at Cbl-b, the IC50 was 0.0078 µM and the “fold-selectivity (Cbl-b over C-cbl)” value was determined as 0.83x. The same molecule gave an IC50 against c-Cbl of 0.0066 µM. In assay [1], this molecule registered a Fold of selectivity of 2.0× and a Kd of 0.0002 µM. For the same molecule, the Kd on c-Cbl (residues 47-435) worked out at 0.0004 µM.
For the molecule `CCNc1cc(N2Cc3c(cc(CNC4(C)CCC4)cc3C(F)(F)F)C2=O)cc([C@]2(c3nncn3C)C[C@@H](C)C2)c1` [Compound 91, 2-(3-(ethylamino)-5-((1s,3s)-3-methyl-1-(4-methyl-4H-1,2,4-triazol-3-yl)cyclobutyl)phenyl)-6-(((1-methylcyclobutyl)amino)methyl)-4-(trifluoromethyl)-isoindolin-1-one], at Cbl-b, the midpoint of inhibition, the IC50, lay at 0.01 µM and the “fold-selectivity (Cbl-b over C-cbl)” value amounted to 0.8x. Half-maximal inhibition at c-Cbl (IC50) required 0.008 µM. Also, in assay [1], the Fold of selectivity is recorded as 3.0× and binding was characterised by a dissociation constant (Kd) of 0.0003 µM. Further, at c-Cbl (residues 47-435), the Kd was 0.0009 µM.
As for `Cn1cnnc1C1(c2cccc(N3Cc4c(cc(CNC5(C)CCC5)cc4C(F)(F)F)C3=O)c2)CC2(CC(F)(F)C2)C1` [Compound 94, 2-(3-(6,6-difluoro-2-(4-methyl-4H-1,2,4-triazol-3-yl)spiro[3.3]heptan-2-yl)phenyl)-6-(((1-methylcyclobutyl)amino)methyl)-4-(trifluoromethyl)isoindolin-1-one], the IC50 on Cbl-b is 0.021 µM; at c-Cbl, 0.12 µM. In addition, the “fold-selectivity (Cbl-b over C-cbl)” value on Cbl-b was 6.0x. In assay [1], the Fold of selectivity is on record as 19×. The Kd in assay [1] worked out at 0.0074 µM; on c-Cbl (residues 47-435), 0.14 µM.
Turning to `Cn1cnnc1[C@]1(c2cccc(N3Cc4c(cc(CNC5(C)CCC5)cc4C(F)(F)F)C3=O)c2)C[C@H](F)C1` [Compound 95, 2-(3-((1s,3s)-3-fluoro-1-(4-methyl-4H-1,2,4-triazol-3-yl)cyclobutyl)-phenyl)-6-(((1-methylcyclobutyl)amino)methyl)-4-(trifluoromethyl)isoindolin-1-one], the IC50 against Cbl-b stood at 0.012 µM; on c-Cbl it was 0.021 µM. The “fold-selectivity (Cbl-b over C-cbl)” value on Cbl-b was determined as 1.7x. The molecule further registered a Fold of selectivity in assay [1] of 7.5×. Moreover, the Kd in assay [1] was 0.002 µM; at c-Cbl (residues 47-435), 0.015 µM.
As to `Cn1cnnc1C1(c2cccc(N3Cc4c(cc(CNC5(C)CCC5)cc4C(F)(F)F)C3=O)c2)CC2(CN(CC(F)(F)F)C2)C1` [Compound 96, 2-(3-(6-(4-methyl-4H-1,2,4-triazol-3-yl)-2-(2,2,2-trifluoroethyl)-2-azaspiro[3.3]heptan-6-yl)phenyl)-6-(((1-methylcyclobutyl)amino)methyl)-4-(trifluoromethyl)-isoindolin-1-one], at Cbl-b, the IC50 came to 4.5 µM and the “fold-selectivity (Cbl-b over C-cbl)” value is recorded as 3.7x. It took 16 µM to reach half-maximal inhibition at c-Cbl (IC50). Moreover, in assay [1], the Fold of selectivity is 4.1× and the Kd amounted to 4.3 µM. The affinity on c-Cbl (residues 47-435), expressed as Kd, was 18 µM.
For the molecule `Cn1cnnc1[C@]1(c2cccc(N3Cc4c(cc(CNC5(C)CCC5)cc4C(F)(F)F)C3=O)c2)C[C@H](CO)C1.O=CO` [Compound 99, 2-(3-((1s,3s)-3-(hydroxymethyl)-1-(4-methyl-4H-1,2,4-triazol-3-yl)cyclobutyl)phenyl)-6-(((1-methylcyclobutyl)amino)methyl)-4-(trifluoromethyl)isoindolin-1-one formate], on Cbl-b, half-maximal inhibition (IC50) required 0.086 µM and the “fold-selectivity (Cbl-b over C-cbl)” value came out at 3.7x. The IC50 on c-Cbl amounted to 0.32 µM. In assay [1], this molecule returned a Fold of selectivity of 4.8× and a Kd of 0.048 µM. At c-Cbl (residues 47-435), this molecule yielded a Kd of 0.23 µM.
Turning to `Cn1cnnc1[C@]1(c2cccc(N3Cc4c(cc(CNC5(C)CCC5)cc4C(F)(F)F)C3=O)c2)C[C@@H](CO)C1.O=CO` [Compound 100, 2-(3-((1r,3r)-3-(hydroxymethyl)-1-(4-methyl-4H-1,2,4-triazol-3-yl)cyclobutyl)phenyl)-6-(((1-methylcyclobutyl)amino)methyl)-4-(trifluoromethyl)isoindolin-1-one formate], on Cbl-b, it took 0.025 µM to reach half-maximal inhibition (IC50) and the “fold-selectivity (Cbl-b over C-cbl)” value amounted to 3.5x. In addition, the IC50 against c-Cbl was found to be 0.086 µM. Moreover, in assay [1], the Fold of selectivity is reported as 12× and the Kd worked out at 0.0058 µM. The molecule further yielded a Kd on c-Cbl (residues 47-435) of 0.072 µM.
As for `Cn1cnnc1[C@]1(c2cccc(N3Cc4c(cc(CNC5(C)CCC5)cc4C(F)(F)F)C3=O)c2)C[C@@H](CF)C1` [Compound 101, 2-(3-((1r,3r)-3-(fluoromethyl)-1-(4-methyl-4H-1,2,4-triazol-3-yl)cyclobutyl)phenyl)-6-(((1-methylcyclobutyl)amino)methyl)-4-(trifluoromethyl)isoindolin-1-one], on Cbl-b, half-maximal inhibition (IC50) required 0.0091 µM and the “fold-selectivity (Cbl-b over C-cbl)” value is recorded as 1.1x. Besides, on c-Cbl, the IC50 was 0.0098 µM. In assay [1], this molecule registered a Fold of selectivity of 4.9× and a Kd of 0.00085 µM. This molecule also returned an equilibrium dissociation constant (Kd) at c-Cbl (residues 47-435) of 0.0042 µM.
With `Cn1cnnc1[C@]1(c2cccc(N3Cc4c(cc(CNC5(C)CCC5)cc4C(F)(F)F)C3=O)c2)C[C@H](CF)C1` [Compound 102, 2-(3-((1s,3s)-3-(fluoromethyl)-1-(4-methyl-4H-1,2,4-triazol-3-yl)cyclobutyl)phenyl)-6-(((1-methylcyclobutyl)amino)methyl)-4-(trifluoromethyl)isoindolin-1-one], the results for the IC50 against Cbl-b and at c-Cbl were 0.0072 µM and 0.011 µM, respectively. The “fold-selectivity (Cbl-b over C-cbl)” value at Cbl-b is 1.5x. In assay [1], the Fold of selectivity was 4.7×. In addition, the Kd in assay [1] turned out to be 0.00083 µM; on c-Cbl (residues 47-435) it was 0.0039 µM.

Source of the values: patent US12187709B2 (Genentech, Inc., priority 2021, dated 2025).
